Laboratory results taken from patent US10167262B2, “Herbicidal substituted 3-arylpyrazoles” (FMC CORPORATION, priority 2014, dated 2019).

Columns and labels:
Format in all cases: in vivo
[1] = tested on: barnyardgrass (Echinochloa crus-galli); assay: Test A pre-/postemergence greenhouse herbicide test, visual injury rating 0-100; details: 1000 g ai/ha
Summary of the method: (§1)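 Visual injury scored on a 0–100 scale versus untreated controls roughly 10 days after treatment in greenhouse. Treatments were preemergence soil sprays plus postemergence sprays to plants 2–10 cm tall at one- to two-leaf stage, in a surfactant-containing solvent formulation.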

corn (Zea mays) = assay: as above; details: 1000 g ai/ha
Summary of the method: as §1

[2] = tested on: giant foxtail (Setaria faberii); assay: as above; details: 1000 g ai/ha
Summary of the method: as §1

[3] = tested on: large (Lg) crabgrass (Digitaria sanguinalis); assay: as above; details: 1000 g ai/ha
Summary of the method: as §1

[4] = tested on: morningglory (Ipomoea spp.); assay: as above; details: 1000 g ai/ha
Summary of the method: as §1

[5] = tested on: pigweed (Amaranthus retroflexus); assay: as above; details: 1000 g ai/ha
Summary of the method: as §1

[6] = tested on: velvetleaf (Abutilon theophrasti); assay: as above; details: 1000 g ai/ha
Summary of the method: as §1

[7] = tested on: wheat (Triticum aestivum); assay: as above; details: 1000 g ai/ha
Summary of the method: as §1

[8] = tested on: giant foxtail (Setaria faberii); assay: Test C pre-/postemergence greenhouse test, plant response rating 0-100; details: Postemergence; for Plant response rating, Foxtail, Giant: scale 0 to 100
Excerpt: (§2) Seeds of plant species selected from blackgrass (Alopecurus myosuroides), Italian ryegrass (Lolium multiflorum), winter wheat (Triticum aestivum), galium (catchweed bedstraw, Galium aparine), corn (Zea mays), large (Lg) crabgrass (Digitaria sanguinalis), giant foxtail (Setaria faberii), johnsongrass (Sorghum halepense), lambsquarters (Chenopodium album), morningglory (Ipomoea coccinea), yellow nutsedge (Cyperus esculentus), pigweed (Amaranthus retroflexus), ragweed (common ragweed, Ambrosia elatior), soybean (Glycine max), barnyardgrass (Echinochloa crus-galli), oilseed rape (Brassica napus), waterhemp (common waterhemp, Amaranthus rudis), and velvetleaf (Abutilon theophrasti) were planted into a blend of loam soil and sand and treated preemergence with test chemicals formulated in a non-phytotoxic solvent mixture which included a surfactant.
(§3) At the same time, plants selected from these crop and weed species and also winter barley (Hordeum vulgare), bermudagrass (Cynodon dactylon), downy bromegrass (Bromus tectorum), canarygrass (Phalaris minor), cocklebur (common cocklebur, Xanthium strumarium), woolly cupgrass (Eriochloa villosa), deadnettle (henbit deadnettle, Lamium amplexicaule), green foxtail (Setaria viridis), goosegrass (Eleusine indica), surinam grass (Brachiaria decumbens), windgrass (Apera spica-venti), chickweed (common chickweed, Stellaria media), kochia (Kochia scoparia), and wild oat (Avena fatua), were planted in pots containing Redi-Earth® planting medium (Scotts Company, 14111 Scottslawn Road, Marysville, Ohio 43041) comprising spaghnum peat moss, vermiculite, wetting agent and starter nutrients and treated with postemergence applications of test chemicals formulated in the same manner. Plants ranged in height from 2 to 18 cm (1- to 4-leaf stage) for postemergence treatments. Treated plants and controls were maintained in a greenhouse for 13 to 15 days, after which time all species were compared to controls and visually evaluated. Plant response ratings, summarized in Table C, are based on a scale of 0 to 100 where 0 is no effect and 100 is complete control. A dash (-) response means no test result.

[9] = tested on: johnsongrass (Sorghum halepense); assay: as above; details: Postemergence; for Plant response rating, Johnsongrass: scale 0 to 100
Excerpt: as §2, §3

[10] = tested on: winter wheat (Triticum aestivum); assay: as above; details: Postemergence; for Plant response rating, Wheat: scale 0 to 100
Excerpt: as §2, §3

[11] = tested on: chickweed (common chickweed, Stellaria media); assay: Test C postemergence greenhouse test, plant response rating 0-100; details: for Plant response rating, Chickweed: scale 0 to 100
Excerpt: as §3

kochia (Kochia scoparia) = assay: as above; details: for Plant response rating, Kochia: scale 0 to 100
Excerpt: as §3

wild oat (Avena fatua) = assay: as above; details: for Plant response rating, Oat, Wild: scale 0 to 100
Excerpt: as §3

Row | Compound | Plant response rating (0 to 100), Foxtail, Giant ([8]; 62 g ai/ha) | Plant response rating (0 to 100), Foxtail, Giant ([8]; 125 g ai/ha) | Plant response rating, Foxtail, Giant ([8]; 250 g ai/ha) | Plant response rating (0 to 100), Johnsongrass ([9]; 62 g ai/ha) | Plant response rating (0 to 100), Johnsongrass ([9]; 125 g ai/ha) | Plant response rating, Johnsongrass ([9]; 250 g ai/ha) | Plant response rating (0 to 100), Wheat ([10]; 62 g ai/ha) | Plant response rating (0 to 100), Wheat ([10]; 125 g ai/ha) | Plant response rating, Wheat ([10]; 250 g ai/ha) | Plant response rating (0 to 100), Chickweed ([11]; 62 g ai/ha) | Plant response rating (0 to 100), Chickweed ([11]; 125 g ai/ha) | Plant response rating, Chickweed ([11]; 250 g ai/ha) | Plant response rating (0 to 100), Kochia (kochia (Kochia scoparia); 62 g ai/ha) | Plant response rating (0 to 100), Kochia (kochia (Kochia scoparia); 125 g ai/ha) | Plant response rating, Kochia (kochia (Kochia scoparia); 250 g ai/ha) | Plant response rating (0 to 100), Oat, Wild (wild oat (Avena fatua); 62 g ai/ha) | Plant response rating (0 to 100), Oat, Wild (wild oat (Avena fatua); 125 g ai/ha) | Plant response rating, Oat, Wild (wild oat (Avena fatua); 250 g ai/ha) | Plant response rating, Foxtail, Giant ([8]; 500 g ai/ha) | Plant response rating, Johnsongrass ([9]; 500 g ai/ha) | further results
1 | Fc1ccccc1NN=C(c1ccccc1)c1c[nH]nc1-c1cc(Cl)cc(Cl)c1 [Compound 57] | 0 | 0 | 5 | 0 | 0 | 0 | 0 | 0 | 0 | 100 | 100 | 100 | 65 | 65 | 80 | 0 | 0 | 0 |  |  | Plant response rating (0 to 100 scale), Barnyardgrass ([1]; Postemergence): 0; Plant response rating (0 to 100 scale), Barnyardgrass ([1]; Preemergence): 0; Plant response rating (0 to 100 scale), Corn (corn (Zea mays); Postemergence): 0; Plant response rating (0 to 100 scale), Corn (corn (Zea mays); Preemergence): 0; Plant response rating (0 to 100 scale), Foxtail, Giant ([2]; Postemergence): 0; Plant response rating (0 to 100 scale), Foxtail, Giant ([2]; Preemergence): 0; Plant response rating (0 to 100 scale), Crabgrass, Large ([3]; Postemergence): 0; Plant response rating (0 to 100 scale), Crabgrass, Large ([3]; Preemergence): 0; Plant response rating (0 to 100 scale), Morningglory ([4]; Postemergence): 0; Plant response rating (0 to 100 scale), Morningglory ([4]; Preemergence): 0; Plant response rating (0 to 100 scale), Pigweed ([5]; Postemergence): 90; Plant response rating (0 to 100 scale), Pigweed ([5]; Preemergence): 90; Plant response rating (0 to 100 scale), Velvetleaf ([6]; Postemergence): 100; Plant response rating (0 to 100 scale), Velvetleaf ([6]; Preemergence): 80; Plant response rating (0 to 100 scale), Wheat ([7]; Postemergence): 0; Plant response rating (0 to 100 scale), Wheat ([7]; Preemergence): 0; Plant response rating (0 to 100), Foxtail, Giant ([8]; 31 g ai/ha): 0; Plant response rating (0 to 100), Chickweed ([11]; 31 g ai/ha): 60
2 | Cn1cc(C(=O)c2ccccc2)c(-c2cc(Br)cc(Br)c2)n1 [Compound 53] | 0 | 0 | 10 | 0 | 0 | 0 | 0 | 0 | 0 | 50 | 50 | 100 | 25 | 45 | 60 | 0 | 0 | 0 | 10 | 0 | Plant response rating (0 to 100 scale), Barnyardgrass ([1]; Postemergence): 0; Plant response rating (0 to 100 scale), Barnyardgrass ([1]; Preemergence): 0; Plant response rating (0 to 100 scale), Corn (corn (Zea mays); Postemergence): 0; Plant response rating (0 to 100 scale), Corn (corn (Zea mays); Preemergence): 0; Plant response rating (0 to 100 scale), Foxtail, Giant ([2]; Postemergence): 0; Plant response rating (0 to 100 scale), Foxtail, Giant ([2]; Preemergence): 0; Plant response rating (0 to 100 scale), Crabgrass, Large ([3]; Postemergence): 0; Plant response rating (0 to 100 scale), Crabgrass, Large ([3]; Preemergence): 0; Plant response rating (0 to 100 scale), Morningglory ([4]; Postemergence): 0; Plant response rating (0 to 100 scale), Morningglory ([4]; Preemergence): 0; Plant response rating (0 to 100 scale), Pigweed ([5]; Postemergence): 100; Plant response rating (0 to 100 scale), Pigweed ([5]; Preemergence): 90; Plant response rating (0 to 100 scale), Velvetleaf ([6]; Postemergence): 90; Plant response rating (0 to 100 scale), Velvetleaf ([6]; Preemergence): 60; Plant response rating (0 to 100 scale), Wheat ([7]; Postemergence): 0; Plant response rating (0 to 100 scale), Wheat ([7]; Preemergence): 0; Plant response rating, Wheat ([10]; 500 g ai/ha): 0; Plant response rating, Chickweed ([11]; 500 g ai/ha): 100; Plant response rating, Kochia (kochia (Kochia scoparia); 500 g ai/ha): 60; Plant response rating, Oat, Wild (wild oat (Avena fatua); 500 g ai/ha): 0
3 | Cn1cc(C(=O)c2cccs2)c(-c2cc(Cl)cc(Cl)c2)n1 [Compound 17] | 0 | 0 | 5 | 0 | 0 | 10 | 0 | 0 | 0 | 10 | 65 | 85 | 30 | 50 | 50 | 0 | 0 | 0 | 10 | 15 | Plant response rating, Wheat ([10]; 500 g ai/ha): 0; Plant response rating, Chickweed ([11]; 500 g ai/ha): 85; Plant response rating, Kochia (kochia (Kochia scoparia); 500 g ai/ha): 55; Plant response rating, Oat, Wild (wild oat (Avena fatua); 500 g ai/ha): 0
4 | CCn1cc(C(=O)c2cccs2)c(-c2cc(Cl)cc(Cl)c2)n1 [Compound 18] | 5 | 10 | 15 | 0 |  | 0 | 0 | 0 | 0 | 50 | 80 | 98 | 20 | 40 | 45 | 0 | 0 | 0 | 20 | 5 | Plant response rating, Wheat ([10]; 500 g ai/ha): 5; Plant response rating, Chickweed ([11]; 500 g ai/ha): 100; Plant response rating, Kochia (kochia (Kochia scoparia); 500 g ai/ha): 60; Plant response rating, Oat, Wild (wild oat (Avena fatua); 500 g ai/ha): 0
